# Reference: patent US6153614A, “Piperazinyl pyrimidine dione compounds selective for adrenoceptors” (Abbott Laboratories, priority 1998, dated 2000)
# pKi: −log10 of the molar value.
# Tests used:
# [1] = biological target: T1, α1b (hamster) adrenoceptor (Mesocricetus auratus, UniProt P18841); assay: Radioligand binding cloned α1b adrenoceptor expressed in LTK cells, [3H]-prazosin; conditions: LTK cell membranes, [3H]prazosin 0.2 nM
# T1 construct: expressed in transfected cells; cDNA from TULCO
# T1 sequence (P18841 1-515): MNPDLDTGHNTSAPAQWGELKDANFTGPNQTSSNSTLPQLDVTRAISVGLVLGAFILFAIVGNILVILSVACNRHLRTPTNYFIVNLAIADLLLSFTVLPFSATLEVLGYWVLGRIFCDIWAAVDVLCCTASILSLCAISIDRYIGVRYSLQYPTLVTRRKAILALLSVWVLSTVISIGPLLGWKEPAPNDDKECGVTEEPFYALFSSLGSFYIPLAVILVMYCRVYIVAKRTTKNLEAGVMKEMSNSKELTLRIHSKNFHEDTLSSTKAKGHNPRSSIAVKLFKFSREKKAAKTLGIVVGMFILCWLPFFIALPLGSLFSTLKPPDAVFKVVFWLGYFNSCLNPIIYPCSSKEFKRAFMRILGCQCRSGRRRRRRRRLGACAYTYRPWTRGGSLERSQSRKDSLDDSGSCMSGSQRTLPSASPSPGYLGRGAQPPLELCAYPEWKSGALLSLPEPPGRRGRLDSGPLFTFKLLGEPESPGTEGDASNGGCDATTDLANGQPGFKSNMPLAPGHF
# Procedure: (§1) Representative compounds of the invention were evaluated for α-adrenoceptor binding affinity in vitro using [^3 H]-prazosin as the radioligand and two cloned α1 adrenoceptors expressed in LTK cells: α1b (hamster), and α1d (rat). Additionally, binding affinity against the pharmacologically defined α1A adrenoceptor (rat submaxillary gland) was measured.
# (§2) The cDNA clones encoding the α-1 adrenoceptors (α1b and α1d) were obtained from TULCO (Triangle Universities Licensing Consortium, Research Triangle Park, N.C.) and inserted into the eukaryotic expression vector SnaB30. In this vector, expression of the adrenoceptor gene is under the transcriptional control of an SV40 early promoter. Positive drug selection is provided by a neomycin-resistance gene. Mouse fibroblast cells (LTK) were transfected with the α1 expression plasmids and grown in Dulbecco's modified Eagle's medium (DMEM) containing 10% fetal calf serum and […] G418. Stable G418-resistant parental lines were generated and successful expression of adrenoceptor protein was monitored using radioligand binding techniques. Stable single cell clones derived from the parental lines were screened in adrenoceptor binding assays to identify clones having high adrenoceptor density. Roller bottle cultures of the cloned lines were used to provide cell membranes for subsequent adrenoceptor binding characterization studies. A cell line containing the SnaB30 vector expressing the human erythropoietin gene served as a negative control.
# For adrenoceptor binding assays, large scale membrane preparations were utilized in which 6 million cells were seeded into small (450 cm^2) Corning tissue culture roller bottles. 200 mL of DMEM containing 10% fetal calf serum and […] G418 were added to each roller bottle. A 95% air/5% CO2 gas mixture (sterile) was injected into each roller bottle prior to sealing. The bottles were incubated at 37° C. on a roller rack for 5 days. Cells were re-fed with fresh medium after 3 days in culture.
# On the fifth day of culture, growth medium was removed from cells grown in the roller bottles, and the cells were washed twice with PBS (Sigma, 120 mM NaCl, 2.7 mM KCl, 10 mM Na2 HPO4 --NaH2 PO4, pH=7.4). Cells were detached from the roller bottles by incubating for 15 minutes at 37° C. in a Tris-EDTA solution (10 mM Tris, 100 mM NaCl, 1 mM EDTA, pH=7.4). The cell suspension from each roller bottle was decanted into preweighed centrifuge tubes and kept on ice. An aliquot of each cell suspension was generally taken for cell counting. Cells were centrifuged at 3000×G for 5 min at 2-4° C., washed with PBS and recentrifuged. The supernatant was decanted and the pellet was weighed to determine the wet weight of cells. Cells were washed a final time in 40 vol 5 mM Tris-HCl, 5 mM EDTA, pH=7.7, centrifuged at 40,000×G for 10 minutes, homogenized in 10 mL of 50 mM Tris-HCl, 5 mM EDTA (pH=7.4), and diluted to 40 mL/tube. Homogenates were centrifuged at 40,000×G for 10 minutes. The supernatant was decanted and the pellets were rehomogenized in 50 mM Tris-HCl (pH=7.4) and centrifuged as before.
# (§3) Briefly, plastic Bioblocks™ (DBM Scientific, Valencia, Calif.) were incubated at 25° C. for 50 minutes with […] of membrane homogenate (diluted with an additional 96 volumes (for cloned adrenoceptors, 12 volumes for submaxillary gland)) in 50 mM Tris-HCl buffer (pH=7.7 at the time of assay), […] of [^3 H]prazosin (0.2 nM final concentration, 75-85 Ci/mmole, DuPont-NEN Corp., Boston, Mass.), and […] of either water (for total binding) or […] phentolamine (final concentration, for non-specific binding). Following equilibration, bound radioligand was separated from free on GF/B filters (presoaked in 0.5% polyethyleneamine) using either a Brandel or Packard cell harvester. Radioactivity was determined by standard liquid scintillation techniques.
# [2] = test system: EPI induced increase in canine IUP; assay: In vivo intraurethral pressure (IUP) in canines, inhibition of EPI induced increase; design: species or system Beagle dogs; conditions: in vivo pseudo pA2 by Schild analysis; antagonist i.v.; epinephrine; propranolol-treated dogs; * (tamsulosin): add 0.4 if slope adjusted to 1
# Procedure: The intraurethral pressure (IUP) model in aged canines is an accepted model of measuring the effect of prostate smooth muscle contraction on urethral tone. Canines also have an enclosed prostate covering the urethral shaft and thus provide an anatomical correlate with humans.
# Beagle dogs (Marshall Farms) greater that 2 years of age and weighing between 12 and 15 kg were pre-anesthetized with thiopental sodium 15 mg/kg i.v. (Pentothal™, Abbott Laboratories, Abbott Park, Ill.) then placed under general anesthesia (isoflurane). A 7F Swan-Ganz balloon catheter (Multiflex-list no. 41224-01, Abbott) was lubricated with a water soluble jelly, inserted into the urethral orifice and advanced approximately 40 cm in male dogs (considerably less in females) until the balloon tip was placed well inside the bladder. The balloon was then inflated with 1 mL of room air, and the catheter was slowly withdrawn just past the first resistance that is felt at the bladder neck. Preliminary experiments in which dogs were sacrificed after such placement confirmed that this technique results in consistent positioning of the balloon within the prostatic urethra in males or the corresponding location in females. The balloon port of the catheter was connected to a Gould Statham P23Dd pressure transducer interfaced to a computerized data acquisition system (Modular Instruments, Inc., Malvern, Pa.) for the measurement of intraurethral pressure (IUP).
# Dogs were then treated with propranolol to block the β-adrenoceptor agonist effects of test agonists. Dose-response curves of the intraurethral pressor effect of epinephrine (EPI) were obtained before and after each of up to 3 increasing doses of a test antagonist (i.v.). Fifteen minutes were allowed after each antagonist dose for equilibration before the next agonist dose-response was initiated. The increase in IUP caused by a given agonist dose was allowed to return to baseline before the next dose was given. The estimated antagonist dissociation constant (in vivo pseudo pA2) was determined by Schild analysis (Brune, et al., Drug Development Research, 34:267-275 (1995).
# [3] = biological target: T2, α1A adrenoceptor (rat submaxillary gland) (Rattus norvegicus, UniProt P43140); assay: Radioligand binding α1A (rat submaxillary gland), [3H]-prazosin
# T2 construct: from tissue; host or cells: rat submaxillary gland membranes
# T2 sequence (P43140 1-466): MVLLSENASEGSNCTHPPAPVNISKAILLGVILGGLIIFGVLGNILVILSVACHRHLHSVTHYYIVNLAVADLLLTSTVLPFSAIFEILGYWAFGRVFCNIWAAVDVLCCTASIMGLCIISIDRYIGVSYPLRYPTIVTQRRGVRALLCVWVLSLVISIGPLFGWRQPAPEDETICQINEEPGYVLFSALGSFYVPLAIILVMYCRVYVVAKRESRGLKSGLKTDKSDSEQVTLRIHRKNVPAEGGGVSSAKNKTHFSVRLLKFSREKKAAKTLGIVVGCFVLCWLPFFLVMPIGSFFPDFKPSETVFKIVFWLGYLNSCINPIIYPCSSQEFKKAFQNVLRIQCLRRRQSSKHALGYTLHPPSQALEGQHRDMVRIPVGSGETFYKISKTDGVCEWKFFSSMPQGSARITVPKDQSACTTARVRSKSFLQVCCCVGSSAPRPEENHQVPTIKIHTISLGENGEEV
# Procedure: as §1
# On the fifth day of culture, growth medium was removed from cells grown in the roller bottles, and the cells were washed twice with PBS (Sigma, 120 mM NaCl, 2.7 mM KCl, 10 mM Na2 HPO4 --NaH2 PO4, pH=7.4). Cells were detached from the roller bottles by incubating for 15 minutes at 37° C. in a Tris-EDTA solution (10 mM Tris, 100 mM NaCl, 1 mM EDTA, pH=7.4). […]
# as §3, with “Following equilibration, bound radioligand was separated from free on GF/B filters (presoaked in 0.5% polyethyleneamine) using either a Brandel or Packard cell harvester.” left out
# [4] = biological target: T3, α1d (rat) adrenoceptor (Rattus norvegicus, UniProt P23944); assay: Radioligand binding cloned α1d adrenoceptor expressed in LTK cells, [3H]-prazosin; conditions: LTK cell membranes, [3H]prazosin 0.2 nM
# T3 construct: expressed in transfected cells; cDNA from TULCO
# T3 sequence (P23944 1-561): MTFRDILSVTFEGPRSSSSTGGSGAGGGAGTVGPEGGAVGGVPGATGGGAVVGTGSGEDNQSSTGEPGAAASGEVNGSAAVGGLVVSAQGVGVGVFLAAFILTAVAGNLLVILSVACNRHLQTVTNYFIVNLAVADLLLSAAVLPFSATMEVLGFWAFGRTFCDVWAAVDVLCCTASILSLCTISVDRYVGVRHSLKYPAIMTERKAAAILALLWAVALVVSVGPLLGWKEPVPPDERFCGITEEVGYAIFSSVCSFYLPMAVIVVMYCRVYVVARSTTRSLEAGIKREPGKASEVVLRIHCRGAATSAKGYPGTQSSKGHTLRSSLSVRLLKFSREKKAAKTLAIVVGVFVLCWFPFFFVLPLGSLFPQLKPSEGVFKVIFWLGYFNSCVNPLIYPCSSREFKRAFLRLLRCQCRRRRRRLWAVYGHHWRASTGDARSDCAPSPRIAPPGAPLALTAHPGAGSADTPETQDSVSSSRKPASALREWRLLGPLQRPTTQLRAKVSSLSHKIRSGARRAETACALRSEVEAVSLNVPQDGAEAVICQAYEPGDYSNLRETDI
# Procedure: as §1
# as §2, with “A cell line containing the SnaB30 vector expressing the human erythropoietin gene served as a negative control.” left out
pKi [1],pKi [4],SMILES,IUP (pA2) [2],pKi [3]
8.56,,"COc1ccccc1N1CCN(CCn2c(=O)[nH]c3scc(-c4cccc(C)c4)c3c2=O)CC1 [Example 4, 3-[4-(2-methoxyphenyl)piperazinylethyl]-5-(3-methylphenyl)thieno[2,3-d]pyrimidine-2,4-dione]",,
8.61,,"COc1ccccc1N1CCN(CCn2c(=O)[nH]c3sc(C)c(-c4ccccc4)c3c2=O)CC1 [Example 2, 3-[4-(2-methoxyphenyl)piperazinylethyl]-6-methyl-5-phenylthieno[2,3-d]pyrimidine-2,4-dione]",,
8.35,,"COc1ccccc1N1CCN(CCn2c(=O)c3c(-c4ccccc4)csc3n(C)c2=O)CC1 [Example 3, 3-[4-(2-methoxyphenyl)piperazinylethyl]-1-methyl-5-phenylthieno[2,3-d]pyrimidine-2,4-dione]",,
,9.00,"COc1cc2nc(N3CCN(C(=O)C4CCCO4)CC3)nc(N)c2cc1OC (stereo not drawn) [terazosin, reference compound]",6.97,
8.47,,"COc1ccccc1N1CCN(CCn2c(=O)[nH]c3scc(-c4ccccc4)c3c2=O)CC1 [Example 1, 3-[4-(2-methoxyphenyl)piperazinylethyl]-5-phenylthieno[2,3-d]pyrimidine-2,4-dione]",7.95,
8.73,,"COc1ccccc1N1CCN(CCn2c(=O)[nH]c3sc(-c4ccccc4)cc3c2=O)CC1 [Example 5, 3-[4-(2-methoxyphenyl)piperazinylethyl]-6-phenylthieno[2,3-d]pyrimidine-2,4-dione]",8.47,

SMILES,pKi [1],pKi [4],IUP (pA2) [2],pKi [3]
"CCOc1ccccc1OCCN[C@H](C)Cc1ccc(OC)c(S(N)(=O)=O)c1 [tamsulosin, reference compound]",9.69,,8.91,10.55
